Measurements as given in PMC5037631, “Identification and characterization of putative xylose and cellobiose transporters in Aspergillus nidulans” (Biotechnology for Biofuels, 2016).

Target: T1, CltA (formerly XtrG; CltA::GFP) (Aspergillus nidulans, UniProt Q5ATN3)
T1 construct: gene ANIA_08347; full-length ORF from cDNA, GFP fusion, expressed in S. cerevisiae SC9721 with N. crassa beta-glucosidase gh1-1; plasma membrane
Assay: growth complementation of S. cerevisiae SC9721 gh1-1 on cellobiose
Type: cell-based
Details: 0.1-2 % cellobiose as sole carbon source, 30 °C; intracellular beta-glucosidase gh1-1 coexpressed

T1 sequence (Q5ATN3 entry or part of it): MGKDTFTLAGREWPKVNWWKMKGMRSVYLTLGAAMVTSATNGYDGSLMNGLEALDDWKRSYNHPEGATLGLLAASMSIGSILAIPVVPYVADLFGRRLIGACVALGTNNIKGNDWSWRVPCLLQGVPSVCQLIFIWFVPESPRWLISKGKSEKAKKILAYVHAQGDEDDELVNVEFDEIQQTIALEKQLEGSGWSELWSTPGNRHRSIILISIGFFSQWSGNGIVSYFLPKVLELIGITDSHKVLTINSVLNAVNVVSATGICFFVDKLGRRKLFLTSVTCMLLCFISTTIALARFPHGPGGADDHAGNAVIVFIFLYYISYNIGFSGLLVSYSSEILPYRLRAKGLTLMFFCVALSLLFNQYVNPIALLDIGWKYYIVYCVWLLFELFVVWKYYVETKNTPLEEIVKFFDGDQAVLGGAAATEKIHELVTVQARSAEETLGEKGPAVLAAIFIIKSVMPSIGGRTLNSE

## OC[C@H]1O[C@@H](O[C@H]2[C@H](O)[C@@H](O)C(O)O[C@@H]2CO)[C@H](O)[C@@H](O)[C@@H]1O (stereo partly shown) [cellobiose]
  growth complementation of S. cerevisiae SC9721 gh1-1 on cellobiose: CltA, and to a lesser extent CltB, is able to transport cellobiose
